According to PubChem BioAssay AID1963978 (Molecular Pharmacology Branch, DTP, NCI, 2024):
pIC50: −log10 of the molar value. Several values for one entry are separate records, joined by “and”; a condition that tells them apart may be missing. Equal entries are not always repeated.

Tested on: 616215-338-R-J1-PDC spheroids with HUVEC/MSC, viability
Assay: Anticancer human tumor 616215-338-R-J1-PDC patient-derived colon adenocarcinoma cell line growth inhibition [PI3K]
Conditions: for viability, T/C: stronger effect = lower value; active = viability on the fitted dose curve at most 10% of control; inactive = the rest
From the text: Combinatorial screen of targeted agents with the PI3K inhibitors inavolisib, alpelisib, duvelisib, and copanlisib in multi-cell type tumor spheroids
A high-throughput screen of multi-cell type tumor spheroids was designed to identify active combinations of targeted small molecules and PI3K pathway inhibitors. Complex spheroids include a stromal component modeled by human endothelial cells (HUVEC) and fibroblasts modeled by human mesenchymal stem cells (MSCs). The concentration ranges selected for each drug and investigational agent were based upon clinically achievable concentrations if the clinical Cmax of the agent was known.
Compounds. The drugs and investigational agents: inavolisib (NSC800729), alpelisib (NSC765974), duvelisib (NSC772469), copanlisib (NSC816437), ipatasertib (NSC767898), afuresertib (NSC778305), talazoparib (NSC767125), sapanisertib (NSC764658), selumetinib (NSC741078), tovorafenib (DAY101, NSC766906), vemurafenib (NSC761431), ravoxertinib (NSC781343), sotorasib (NSC818433), MRTX1133 (NSC 836407), abemaciclib (NSC 768073), palbociclib (NSC758247), venetoclax (NSC 766270), SY5609 (NSC837396), enzalutamide (NSC755605), and darolutamide (NSC825331), were obtained from the National Cancer Institute (NCI) Developmental Therapeutics Program Chemical Repository. The FDA-approved anticancer drug set is available from the NCI Developmental Therapeutics Program. […] The stock solutions were prepared in dimethyl sulfoxide (DMSO, Sigma-Aldrich, St. Louis, MO, cat. D2650) at 800-fold the tested concentration and stored at -70 degrees C prior to their use. All drugs and investigational agents were tested over a range starting from a high concentration at or near the clinical Cmax and decreasing in half-log increments. If the clinical Cmax for an agent had not been determined, the highest concentration tested was 10 microM.
Cell Culture. All cells were maintained in an incubator at 37 degrees C and 5% CO2 with 95% humidity. The PDC lines were cultured according to standard operating procedures established by the NCI PDMR (https://pdmr.cancer.gov/sops/default.htm). All PDCs were thawed and cultured in Matrigel-coated flasks prepared with a working solution of 1X Ham's F-12 nutrient mix, without supplementation (Invitrogen, Waltham, MA, cat. 11765054), 100 U/mL penicillin-streptomycin (Invitrogen, cat. 15140122), and 2.5% Matrigel (Corning Inc., Corning, NY, cat. 354248) for the first three passages. The 354836-022-R-J1-PDC, 475296-252-R-J1-PDC, and 997726-040-R-J2-PDC lines were cultured in 6A media, which includes advanced DMEM/F-12 (Thermo Fisher Scientific, cat. 12634028), 10 mM HEPES (Thermo Fisher Scientific, cat. 15630080), 1X GlutaMAX supplement (Thermo Fisher Scientific, cat. 35050061), 0.1 mg/mL primocin (InvivoGen, San Diego, CA, cat. ant-pm-2), 10% defined fetal bovine serum, heat inactivated (HyClone Laboratories Inc., Logan, UT, cat. SH30070.03HI), 50% L-WRN conditioned media (ATCC, cat. CRL-3276), 1.25 mM N-Acetyl-L-cysteine (Sigma-Aldrich, cat. A9165), 10 mM nicotinamide (Sigma-Aldrich, cat. N0636), 1X B-27 supplement (Thermo Fisher Scientific, cat. 17504044), 1X N-2 supplement (Thermo Fisher Scientific, cat. 17502048), and 10 microM Y-27632 dihydrochloride (Tocris Bioscience, Bristol, United Kingdom, cat. 1254). The 624824-186-R-J2-PDC line was cultured in 6C/Colon 1B media, which includes all 6A media components plus 50 ng/mL human EGF recombinant protein (Thermo Fisher Scientific, cat. PHG0311). […]

[1] = curve of first compound, second compound 0.0316 µM
[2] = curve of first compound, second compound 0.1 µM
[3] = curve of first compound, second compound 0.316 µM
[4] = curve of first compound, second compound 1 µM
[5] = second compound 0.0316 µM, first compound 0.0316 µM
[6] = second compound 0.0316 µM, first compound 0.1 µM
[7] = second compound 0.0316 µM, first compound 0.316 µM
[8] = second compound 0.0316 µM, first compound 1 µM
[9] = second compound 0.0316 µM, first compound 3.16 µM
[10] = second compound 0.0316 µM, first compound 10 µM
[11] = second compound 0.1 µM, first compound 0.0316 µM
[12] = second compound 0.1 µM, first compound 0.1 µM
[13] = second compound 0.1 µM, first compound 0.316 µM
[14] = second compound 0.1 µM, first compound 1 µM
[15] = second compound 0.1 µM, first compound 3.16 µM
[16] = second compound 0.1 µM, first compound 10 µM
[17] = second compound 0.316 µM, first compound 0.0316 µM
[18] = second compound 0.316 µM, first compound 0.1 µM
[19] = second compound 0.316 µM, first compound 0.316 µM
[20] = second compound 0.316 µM, first compound 1 µM
[21] = second compound 0.316 µM, first compound 3.16 µM
[22] = second compound 0.316 µM, first compound 10 µM
[23] = second compound 1 µM, first compound 0.0316 µM
[24] = second compound 1 µM, first compound 0.1 µM
[25] = second compound 1 µM, first compound 0.316 µM
[26] = second compound 1 µM, first compound 1 µM
[27] = second compound 1 µM, first compound 3.16 µM
[28] = second compound 1 µM, first compound 10 µM
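Note: spheroids exposed to agents for seven days before the viability read.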

CCN1CCN(Cc2ccc(Nc3ncc(F)c(-c4cc(F)c5nc(C)n(C(C)C)c5c4)n3)nc2)CC1
inactive: viability, T/C (compound 0.00316 µM) 98.2% [middle of 4 runs] | viability, T/C (compound 0.01 µM) 92.2% [middle of 4 runs] | viability, T/C (compound 0.0316 µM) 97.4% [middle of 4 runs] | viability, T/C (compound 0.1 µM) 114% and 104% (2×) and 116%
< 6.00: pIC50 (curve of compound)

CNC(=O)c1ccc(N2C(=S)N(c3ccc(C#N)c(C(F)(F)F)c3)C(=O)C2(C)C)cc1F + Cc1nc(NC(=O)N2CCCC2C(N)=O)sc1-c1ccnc(C(C)(C)C(F)(F)F)c1
< 5.00: pIC50 [1] | pIC50 [2] | pIC50 [3] | pIC50 [4] | pIC50 (curve of first compound, second compound 3.16 µM) | pIC50 (curve of first compound, second compound 10 µM)
inactive: viability, T/C [5] 97.6% | viability, T/C [6] 95.1% | viability, T/C [7] 102% | viability, T/C [8] 96.5% | viability, T/C [9] 95.6% | viability, T/C [10] 93% | viability, T/C [11] 116% | viability, T/C [12] 86% | viability, T/C [13] 94.7% | viability, T/C [14] 99% | viability, T/C [15] 91.9% | viability, T/C [16] 103% | viability, T/C [17] 94% | viability, T/C [18] 99.9% | viability, T/C [19] 109% | viability, T/C [20] 97.9% | viability, T/C [21] 94.4% | viability, T/C [22] 93.1% | viability, T/C [23] 101% | viability, T/C [24] 96.4% | viability, T/C [25] 104% | viability, T/C [26] 97.4% | viability, T/C [27] 101% | viability, T/C [28] 104% | viability, T/C (second compound 3.16 µM, first compound 0.0316 µM) 101% | viability, T/C (second compound 3.16 µM, first compound 0.1 µM) 93.8% | viability, T/C (second compound 3.16 µM, first compound 0.316 µM) 91.3% | viability, T/C (second compound 3.16 µM, first compound 1 µM) 90% | viability, T/C (second compound 3.16 µM, first compound 3.16 µM) 93.5% | viability, T/C (second compound 3.16 µM, first compound 10 µM) 90.6% | viability, T/C (second compound 10 µM, first compound 0.0316 µM) 90.6% | viability, T/C (second compound 10 µM, first compound 0.1 µM) 93.3% | viability, T/C (second compound 10 µM, first compound 0.316 µM) 98.4% | viability, T/C (second compound 10 µM, first compound 1 µM) 98.9% | viability, T/C (second compound 10 µM, first compound 3.16 µM) 99.4% | viability, T/C (second compound 10 µM, first compound 10 µM) 54.6%

CC1(C)CCC(Nc2ncc(C(F)(F)F)c(-c3c[nH]c4c(P(C)(C)=O)c(C#N)ccc34)n2)CN1 (centres undefined) + CC(Nc1ccc2c(c1)OCCn1cc(N3C(=O)OCC3C(F)F)nc1-2)C(N)=O
5.86: pIC50 [4]
5.79: pIC50 [3]
5.45: pIC50 [1]
5.43: pIC50 (curve of first compound, second compound 0.01 µM)
inactive: viability, T/C (second compound 0.00316 µM, first compound 0.0316 µM) 50.4% | viability, T/C (second compound 0.00316 µM, first compound 0.1 µM) 55.4% | viability, T/C (second compound 0.00316 µM, first compound 0.316 µM) 56.4% | viability, T/C (second compound 0.00316 µM, first compound 1 µM) 61.7% | viability, T/C (second compound 0.00316 µM, first compound 3.16 µM) 59.1% | viability, T/C (second compound 0.01 µM, first compound 0.0316 µM) 53.6% | viability, T/C (second compound 0.01 µM, first compound 0.1 µM) 54.3% | viability, T/C (second compound 0.01 µM, first compound 0.316 µM) 58% | viability, T/C (second compound 0.01 µM, first compound 1 µM) 64.8% | viability, T/C (second compound 0.01 µM, first compound 3.16 µM) 61% | viability, T/C [5] 58% | viability, T/C [6] 49.4% | viability, T/C [7] 71.4% | viability, T/C [8] 52.2% | viability, T/C [9] 55.4% | viability, T/C [11] 66.7% | viability, T/C [12] 59.5% | viability, T/C [13] 53.2% | viability, T/C [14] 59.4% | viability, T/C [15] 60.4% | viability, T/C [17] 49.8% | viability, T/C [18] 45.8% | viability, T/C [19] 59.5% | viability, T/C [20] 71.9% | viability, T/C [21] 41% | viability, T/C [23] 49.6% | viability, T/C [24] 54.3% | viability, T/C [25] 64.7% | viability, T/C [26] 62.2% | viability, T/C [27] 30.8%
5.42: pIC50 [2]
5.44: pIC50 (curve of first compound, second compound 0.00316 µM)
active: viability, T/C (second compound 0.00316 µM, first compound 10 µM) 0.47% | viability, T/C (second compound 0.01 µM, first compound 10 µM) 0.42% | viability, T/C [10] 2.25% | viability, T/C [16] 2.28% | viability, T/C [22] 0.25% | viability, T/C [28] 1.17%
